The text below walks through data of paper PMC8431370, “The Second-Generation PIM Kinase Inhibitor TP-3654 Resensitizes ABCG2-Overexpressing Multidrug-Resistant Cancer Cells to Cytotoxic Anticancer Drugs” (International Journal of Molecular Sciences, 2021).

Series [1] addresses T1, ATP-binding cassette (ABC) subfamily G member 2 (ABCG2) (Homo sapiens, UniProt Q9UNQ0).
T1 construct: ABCG2-transfected R482-HEK293 cells
T1 sequence (Q9UNQ0 1-655): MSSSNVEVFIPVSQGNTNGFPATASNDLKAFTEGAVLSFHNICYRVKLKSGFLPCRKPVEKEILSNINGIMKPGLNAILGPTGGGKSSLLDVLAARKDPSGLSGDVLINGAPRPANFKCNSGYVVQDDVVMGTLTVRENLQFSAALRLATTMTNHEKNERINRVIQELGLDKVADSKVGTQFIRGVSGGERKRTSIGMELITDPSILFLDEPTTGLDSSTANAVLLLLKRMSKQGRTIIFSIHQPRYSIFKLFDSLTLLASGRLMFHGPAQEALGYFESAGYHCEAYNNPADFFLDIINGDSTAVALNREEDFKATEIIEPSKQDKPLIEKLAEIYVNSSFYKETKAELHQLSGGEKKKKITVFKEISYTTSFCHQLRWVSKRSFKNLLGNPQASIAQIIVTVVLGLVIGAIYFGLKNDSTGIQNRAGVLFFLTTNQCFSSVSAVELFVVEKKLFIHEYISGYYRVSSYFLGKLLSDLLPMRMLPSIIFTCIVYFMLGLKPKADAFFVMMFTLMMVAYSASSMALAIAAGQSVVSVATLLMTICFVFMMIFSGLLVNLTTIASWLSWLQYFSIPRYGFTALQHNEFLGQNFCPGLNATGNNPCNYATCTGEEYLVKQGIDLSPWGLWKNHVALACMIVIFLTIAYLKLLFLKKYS
The experiment in a line: flow cytometry inhibition of pheophorbide A efflux in ABCG2-transfected HEK293 cells (also S1-M1-80 and H460-MX20). The series is classed as cell-based. From the text:
flow cytometry inhibition of pheophorbide A efflux in ABCG2-transfected HEK293 cells (also S1-M1-80 and H460-MX20) on ATP-binding cassette (ABC) subfamily G member 2 (ABCG2) | TP-3654 inhibited ABCG2-mediated efflux of PhA in ABCG2-transfected R482-HEK293 cells
For orientation: In flow cytometry, cells or beads pass a laser one at a time.

Series [2] concerns the target T1, ATP-binding cassette (ABC) subfamily G member 2 (ABCG2). The experiment in a line: flow cytometry of ABCG2-mediated efflux in parental and ABCG2-transfected HEK293 cells. The series is classed as cell-based.

What is called IC50 is the concentration that gives 50% inhibition. High values mean weaker potency, low ones greater potency.

For the compound `CC(C)(O)[C@H]1CC[C@H](Nc2ccc3ncc(-c4cccc(C(F)(F)F)c4)n3n2)CC1` [TP-3654], in series [1], the IC50 was approximately 0.14 µM. As to `C=Cc1c(C)c2cc3nc(c4c5[nH]c(cc6nc(cc1[nH]2)C(C)=C6CC)c(C)c5C(=O)[C@@H]4C(=O)OC)[C@@H](CCC(=O)O)[C@@H]3C` [pheophorbide A], the “flow cytometry of ABCG2-mediated efflux in parental and ABCG2-transfected HEK293” value in series [2] is “Flow cytometry analysis of PhA accumulation in parental HEK293 cells and ABCG2-transfected R482-HEK293 cells”.
